This is an account of results in PubChem BioAssay (NCI).

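Compound exposure: 48 hours, 5 concentrations, 96-well plates. GI50: concentration for 50% inhibition of growth. TGI: concentration producing complete growth inhibition.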 Bounds are passed on as bounds.

Common to all, as to test: NCI-60 cell line screen, 48 h
For assay [1], the system named is SK-MEL-28 melanoma.
Assay [2] concerns UO-31 renal.
The subject of assay [3] is 786-0 renal.
Assay [4] concerns HOP-62 NSCLC.
For assay [5], the system named is LXFL 529 NSCLC.
Assay [6] concerns M14 melanoma.
Assay [7] deals with HT29 colon.
For assay [8], the system named is OVCAR-3 ovarian.
Assay [9] relates to MCF7 breast.
Assay [10] deals with HOP-18 NSCLC.

For the compound `COC(=O)C(Cc1nc2ccc(Cl)cc2[nH]c1=O)/C(=N\N)C(=O)Nc1cc(C)c(Cl)cc1S(=O)(=O)O` (configuration not stated), the TGI in assay [1], in assay [2], in assay [3], in assay [4], in assay [5] and in assay [6] was over 100 µM each time. Also, the TGI in assay [7] and in assay [8] was over 100 µM each time.

`COc1cccc(C2=NC(C(C)C)CO2)c1` (configuration not stated): the TGI in assay [1], in assay [2], in assay [3], in [4], in assay [5] and in [6] was over 100 µM throughout. Further, the TGI in [7] and in assay [8] was over 100 µM throughout.

For `COc1ccc(CC2NCCc3c2[nH]c2ccccc32)cc1` (configuration not stated), the TGI in [1], in [2], in assay [3], in assay [4], in [5] and in assay [6] was over 100 µM throughout. Moreover, the TGI in [7] and in assay [8] was over 100 µM throughout.

For `CCN1CCC(O)(c2ccc(OC)cc2)C(C(=O)c2ccc(OC)cc2)C1` (configuration not stated), the TGI was 10.6 µM in [1]; 35.3 µM in assay [2]; 26.8 µM in assay [3]; over 100 µM in assay [4]; 37.2 µM in assay [5]; 29.7 µM in assay [6]. Further, the values for the TGI in assay [7] and in assay [8] were 48.1 µM and 31.6 µM, respectively.

On to `NC(=O)C12CC3CC(CC(F)(C3)C1)C2`, for which the TGI in assay [1], in assay [2], in [3], in assay [4], in assay [5] and in assay [6] was over 100 µM throughout. Further, the TGI in assay [7] and in [8] was over 100 µM each time.

As to `COc1ccc(NC(=O)/C(Cc2cc(=O)oc3cc(O)ccc23)=N\NC(C)(C)C)c(OC)c1`, the TGI in [1], in assay [2], in assay [3], in [4], in assay [5] and in assay [6] was over 100 µM in each case. Moreover, the TGI in assay [7] and in assay [8] was over 100 µM each time.

As for `COc1cc2c(c(OC)c1OC)-c1ccc(SC)c(=O)cc1C(NC=O)CC2` (configuration not stated), the TGI is over 100 µM in assay [1]; over 100 µM in assay [2]; over 100 µM in [3]; 42 µM in [9]; over 90.8 µM in assay [4]; over 21.5 µM in assay [6]. Further, the results for the TGI in [10], in assay [7] and in [8] were over 100 µM, 1.1 µM and 2.33 µM, respectively.

On to `CCC[CH2][Sn]([Cl])([CH2]CCC)[CH2]CCC`, for which the GI50 in assay [1] is 139 nM; in assay [2] it was 160 nM; in assay [3], 0.087 µM; in assay [4] it was 0.271 µM; in [5] it was 64.5 nM; in assay [6], 162 nM. The GI50 in assay [7] was 39.6 nM; in assay [8], 142 nM. Besides, the TGI stood at 0.269 µM in [1]; 0.312 µM in assay [2]; 0.21 µM in assay [3]; 1.13 µM in assay [4]; 0.202 µM in assay [5]; 0.308 µM in [6]. The TGI stood at 0.143 µM in [7] and 0.312 µM in assay [8].

Consider `O=C(Nc1ccncc1)C(=O)c1cn(S(=O)(=O)c2ccc(F)cc2)c2ccccc12`, for which the GI50 is 6820 nM in assay [1]; 2640 nM in assay [2]; 4.55 µM in assay [3]; 779 nM in assay [9]; 3.02 µM in assay [4]; 1780 nM in assay [6]. The GI50 was 1880 nM in [7] and 1760 nM in assay [8]. Besides, the TGI in assay [1] is 36.2 µM; in assay [2] it was 48.3 µM; in [3], 79.7 µM; in [9], over 100 µM; in assay [4] it was over 100 µM; in assay [6] it was over 100 µM. Moreover, the figures for the TGI in [7] and in assay [8] were over 100 µM and 7.6 µM, respectively.

Turning to `Cc1nn(-c2ccc(Cl)cc2)c2nc3c(nc12)C(=O)c1ccccc1-3`, the GI50 was over 100000 nM in assay [1]; over 100000 nM in assay [2]; 75.3 µM in assay [3]; 51900 nM in assay [9]; 13.7 µM in [4]; over 100000 nM in assay [6]. Moreover, the GI50 in assay [7] and in assay [8] was over 100000 nM in each case. Moreover, the TGI in assay [1], in [2], in assay [3], in [9], in assay [4] and in assay [6] was over 100 µM throughout. In addition, the TGI in assay [7] and in assay [8] was over 100 µM throughout.

With `N#CC(C(=O)C(=O)C(C#N)c1ccc(Br)cc1)c1ccc(Br)cc1` (configuration not stated), the TGI was 28.9 µM in assay [1]; 29.9 µM in [2]; 27 µM in [3]; 27.2 µM in [4]; 31.6 µM in assay [6]; 25.9 µM in [10]. Besides, the TGI in assay [7] was found to be 22.8 µM; in assay [8] it was 21.4 µM.

`Cc1ccc(/C=C/C(=O)c2sc(-c3nc(C)c(C(=O)/C=C/c4ccc(C)cc4)s3)nc2C)cc1`: the TGI in [1], in [2], in [3], in assay [4], in [10] and in [7] was over 100 µM throughout. The TGI in assay [8] is over 100 µM.

`CCSc1ncnc2c1ncn2C1OC(CO)C(O)C1O` (configuration not stated): the GI50 was over 48300 nM in [1]; 405 nM in assay [2]; 0.449 µM in assay [3]; 288 nM in assay [9]; 1.47 µM in assay [4]; 589 nM in [6]. Moreover, the GI50 is 229 nM in [7] and 312 nM in assay [8]. For the same compound, the TGI in [1] was over 100 µM; in assay [2], over 100 µM; in assay [3], over 100 µM; in assay [9], over 91.2 µM; in assay [4], over 100 µM; in [6], over 100 µM. Besides, the TGI in [7] was over 100 µM; in assay [8] it was over 79.7 µM.

In the case of `Cn1cc(C2=C(c3cn(CCCCO)c4ccccc34)C(=O)NC2=O)c2ccccc21`, the GI50 in assay [1] is 12600 nM; in assay [2] it was 6330 nM; in [3] it was 8.81 µM; in [9], 4450 nM; in assay [4] it was 9.95 µM; in assay [6], 16600 nM. The GI50 was 8300 nM in assay [7] and 8090 nM in assay [8]. The TGI is over 25 µM in [1]; over 20.1 µM in assay [2]; over 25 µM in assay [3]; over 25 µM in assay [9]; over 25 µM in assay [4]; over 25 µM in assay [6]. Besides, the TGI in [7] and in assay [8] was over 25 µM in each case.

In the case of `O=C(N[C@@H](c1ccc(Cl)c(Cl)c1)C1CNC1)c1ccc2cnccc2c1`, the GI50 was 301 nM in assay [1]; 543 nM in [2]; 0.0676 µM in [3]; 200 nM in assay [9]; 0.34 µM in assay [4]; 343 nM in assay [6]. Moreover, the GI50 in [7] is 206 nM; in [8], 1560 nM. Moreover, the TGI in assay [1] was determined as 3.43 µM; in assay [2], 10 µM; in [3] it was 2.34 µM; in assay [9], 1.59 µM; in assay [4], 11.5 µM; in assay [6] it was 8.4 µM. The TGI was 12.1 µM in assay [7] and 13.2 µM in [8].

`CC(C)Oc1ccc2cc(-c3nn(CC4CCNCC4)c4ncnc(N)c34)ccc2c1`: the GI50 was 2140 nM in assay [1]; 4150 nM in [2]; 11 µM in assay [3]; 5590 nM in assay [9]; 15.6 µM in assay [4]; 2050 nM in assay [6]. Also, the GI50 is 2780 nM in assay [7] and 12500 nM in [8]. Moreover, the TGI in assay [1] was determined as 5.3 µM; in assay [2], 18.9 µM; in assay [3] it was 24.4 µM; in assay [9] it was 20.1 µM; in [4] it was 31.4 µM; in assay [6] it was 4.68 µM. For the same compound, the TGI in assay [7] was determined as 12.2 µM; in [8], 25 µM.

As for `CCOC(=O)C(=[N+]=[N-])[Si](C)(C)C`, the TGI in assay [1] is 45.6 µM; in assay [3], over 100 µM; in [4], 49.7 µM; in assay [10] it was over 100 µM; in assay [7], over 100 µM; in [8], over 100 µM.

Regarding `COc1ccc2[nH]cc(C3(c4c[nH]c5ccc(OC)cc45)C(=O)Nc4ccc(F)cc43)c2c1`, the GI50 in assay [1] was 2290 nM; in assay [2], 1510 nM; in assay [3], 3.39 µM; in assay [9], 2720 nM; in assay [4], 3.09 µM; in [6], 2410 nM. The GI50 was 2440 nM in assay [7] and 2150 nM in [8]. Further, the TGI in assay [1] is 6.75 µM; in assay [2], 11.9 µM; in assay [3], 12.5 µM; in [9], 10.1 µM; in assay [4], 13 µM; in [6] it was 6.77 µM. Moreover, the TGI in [7] was 6.14 µM; in assay [8], 4.42 µM.

For the compound `CC(=O)Oc1c2c(c(O)c3ccccc13)C(n1cnc3c(ncn3C3OC(CO)C4OC(C)(C)OC43)c1=N)CCC2` (configuration not stated), the TGI in assay [1] was 31.8 µM; in [2] it was 29.8 µM; in assay [3], 27.8 µM; in assay [4] it was 30.6 µM; in [10], 34.6 µM; in [7], 29.2 µM. Moreover, the TGI in assay [8] worked out at 27.8 µM.

Turning to `O=C1C=CC(=O)c2cc3cc(CBr)ccc3cc21`, the GI50 was 7310 nM in assay [1]; 3590 nM in assay [2]; 2.28 µM in assay [3]; 9730 nM in [9]; 16 µM in assay [4]; 8580 nM in assay [6]. For the same compound, the GI50 is 2620 nM in assay [7] and 7430 nM in [8]. The TGI in [1] was over 63.1 µM; in assay [2], over 100 µM; in assay [3], 5.24 µM; in assay [9], over 100 µM; in assay [4], 37.8 µM; in assay [6], 23.4 µM. The TGI in [7] is over 100 µM; in [8], over 21.8 µM.

Regarding `O=C(c1ccccc1Br)C(F)(F)F`, the TGI in [1], in assay [2], in assay [3], in assay [9], in assay [4] and in [6] was over 100 µM throughout. For the same compound, the TGI in assay [7] and in assay [8] was over 100 µM in each case.

`CO/N=C(\COc1ccc2c(c1)oc(=O)c1cc(OC)ccc12)c1ccc(OC)cc1`: the GI50 is over 100000 nM in [1]; over 100000 nM in assay [2]; over 100 µM in assay [3]; over 100000 nM in [9]; over 100 µM in assay [4]; over 100000 nM in assay [6]. Besides, the GI50 in [7] and in assay [8] was over 100000 nM in each case. The TGI in assay [1], in assay [2], in [3], in assay [9], in assay [4] and in [6] was over 100 µM in each case. Further, the TGI in assay [7] and in assay [8] was over 100 µM in each case.

Take `COc1c(OC[C@H](O)CN2CCOCC2)ccc2c3n(c(=NC(=O)c4cccnc4C)nc12)CCN3`: the GI50 was 465 nM in assay [1]; 263 nM in assay [2]; 0.399 µM in assay [3]; 75.1 nM in [9]; 1.41 µM in assay [4]; 27800 nM in assay [6]. Besides, the GI50 in [7] is 217 nM; in [8] it was 432 nM. Further, the TGI in [1], in assay [2], in assay [3], in assay [9], in assay [4] and in assay [6] was over 50 µM each time. Also, the TGI in assay [7] and in assay [8] was over 50 µM each time.

As to `Oc1cccnc1[Se]`, the TGI was over 100 µM in [1]; over 100 µM in assay [2]; 31.7 µM in assay [3]; over 100 µM in assay [9]; 64.7 µM in [4]; 67.9 µM in [6]. Besides, the TGI in assay [7] and in [8] was over 100 µM in each case.
